Drawing on the NIST ThermoML archive (doi:10.1016/j.jct.2009.07.010), this text covers mass density for 1 compound.

For the series the following is noted: 298.15 K; 101.33 kPa; Liquid; Vibrating tube method.

± gives the expanded uncertainty stated by the source.

`CCn1cc[n+](C)c1.O=S(=O)([O-])C(F)(F)F` [1-ethyl-3-methylimidazolium trifluoromethanesulfonate]: the mass density amounted to 1387.07 ± 2.2 kg/m3.

By mass density is commonly meant the mass of a sample divided by its volume.
